# Data: ChEMBL document CHEMBL3045087, “Physicochemical interaction of antitumor acridinone derivatives with DNA in view of QSAR studies” (2011)
# Assays:
# [1] = test system: DNA; conditions: Bos taurus
# Description: Binding affinity to Bos taurus (calf) thymus DNA assessed as change in melting temperature at drug to DNA base pair ratio 0.25 M
# [2] = test system: P388; test: Antitumor activity against Mus musculus (mouse) P388 cells xenografted in Mus musculus (mouse) assessed as increase in survival time relative to control; type: functional; parameters: concentration or dose not given beside the values
SMILES,ΔTm [1] [°C],Increase in survival time [2] [%]
CN(C)CCNc1ccc2ncn3c4ccccc4c(=O)c1c23,9.5,90
CCN(CC)CCNc1ccc2ncn3c4ccc(OC)cc4c(=O)c1c23,11.5,96
CN(C)CCNc1ccc2nnn3c4ccc(C(C)(C)C)cc4c(=O)c1c23,6.8,0
CCN(CC)CCNc1ccc2nc(C)n3c4ccc(O)cc4c(=O)c1c23,15.3,185
CN(C)CCCNc1ccc2ncn3c4ccc(O)cc4c(=O)c1c23,3.5,120
CCN(CC)CCNc1ccc2ncn3c4ccc(C(C)(C)C)cc4c(=O)c1c23,2.4,0
CCN(CC)CCNc1ccc2ncn3c4ccc(O)cc4c(=O)c1c23 [C-1311],13.7,93
CN(C)CCNc1ccc2nnn3c4ccc(O)cc4c(=O)c1c23,13.1,102
CN(C)CCCNc1ccc2ncn3c4ccccc4c(=O)c1c23,11.5,25
CCNCCNc1ccc2nnn3c4ccc(O)cc4c(=O)c1c23,7.1,78
Cc1ccc2c(c1)c(=O)c1c(NCCCN(C)C)ccc3nnn2c31,11.5,18
CN(C)CCCCCNc1ccc2ncn3c4ccccc4c(=O)c1c23,9.9,10
CCN(CC)CCNc1ccc2ncn3c4ccccc4c(=O)c1c23,7.2,55
CCN(CC)CCCCCNc1ccc2ncn3c4ccc(C)cc4c(=O)c1c23,10.5,20
CN(C)CCN(C)c1ccc2nnn3c4ccc(O)cc4c(=O)c1c23,8.1,10
CN(C)CCNc1ccc2nnn3c4ccccc4c(=O)c1c23,9.1,77
CCN(CC)CCNc1ccc2ncn3c4cc(O)ccc4c(=O)c1c23,8.3,27
CN(C)CCCNc1ccc2nnn3c4ccc(O)cc4c(=O)c1c23,15.1,165
CN(C)CCNc1ccc2ncn3c4ccc(O)cc4c(=O)c1c23,12.3,110
CN(C)CCCCCNc1ccc2ncn3c4ccc(O)cc4c(=O)c1c23,13.1,85
